This passage reports melting point results from patent US7183415B2, “Quinoline compound” (Takeda Pharmaceutical Company Limited, priority 2001, dated 2007).

With `CC(=O)c1ccc(-c2ccc(C(=O)Nc3ccc4cc(CN5CCCC5)cnc4c3C)cc2)s1` (hydrate or solvate) [Example 119, 4-(5-acetyl-2-thienyl)-N-[8-methyl-3-(1-pyrrolidinylmethyl)-7-quinolinyl]benzamide], the melting point fell in the range of 194 to 195 °C. Compound `O=C(Nc1ccc2cc(CN3CCC(CCO)CC3)cnc2c1)c1ccc(-c2ccc(Cl)cc2)cc1` [Example 89, 4′-chloro-N-(3-{[4-(2-hydroxyethyl)-1-piperidinyl]methyl}-7-quinolinyl)-[1,1′-biphenyl]-4-carboxamide] registered a melting point of 204 °C. Under `Cc1c(NC(=O)c2ccc(-c3ccc(F)cc3)c(F)c2)ccc2cc(CN3CCCCCC3)cnc12` (hydrate or solvate) [Example 189, N-[3-(1-azepanylmethyl)-8-methyl-7-quinolinyl]-2,4′-difluoro[1,1′-biphenyl]-4-carboxamide] stands 162 to 163 °C; under `Cc1ccc(-c2ccc(C(=O)Nc3ccc4cc(CN5CCCC5)cnc4c3)c(F)c2)cc1` [Example 277, 3-fluoro-4′-methyl-N-[3-(1-pyrrolidinylmethyl)-7-quinolinyl][1,1′-biphenyl]-4-carboxamide], 173 °C; under `O=C(Nc1ccc2cc(CN3CCC(CCO)CC3)cnc2c1)c1ccc(-c2ccc(F)cc2)cc1` [Example 46, 4′-fluoro-N-(3-{[4-(2-hydroxyethyl)-1-piperidinyl]methyl}-7-quinolinyl)[1,1′-biphenyl]-4-carboxamide], 193 to 196 °C.

In turn, `O=C(Nc1cc2ncc(CN3CCCC3)cc2cc1N1CCCC1)c1ccc(Br)cc1` [Example 63, 4-bromo-N-[6-(1-pyrrolidinyl)-3-(1-pyrrolidinylmethyl)-7-quinolinyl]benzamide] displayed a melting point of 171 to 173 °C. Then `COc1ccc(-c2ccc(C(=O)Nc3ccc4cc(CN5CCCC5)cnc4c3)cc2)cc1` [Example 3, 4′-methoxy-N-[3-(1-pyrrolidinylmethyl)-7-quinolinyl][1,1′-biphenyl]-4-carboxamide], with 202 to 204 °C; and `COc1c(NC(=O)c2ccc(-c3ccc(F)cc3)cc2)ccc2cc(CN3CCCC3)cnc12` [Example 81, 4′-fluoro-N-[8-methoxy-3-(1-pyrrolidinylmethyl)-7-quinolinyl][1,1′-biphenyl]-4-carboxamide], with 142 to 144 °C.

Consider `Cc1c(NC(=O)c2ccc(-c3ccc4c(c3)CCCO4)cc2)ccc2cc(CN3CCCC3)cnc12` [Example 114, 4-(3,4-dihydro-2H-chromen-6-yl)-N-[8-methyl-3-(1-pyrrolidinylmethyl)-7-quinolinyl]benzamide], for which the melting point lay in the range of 195 to 197 °C. The compound `Cc1cc2cc(CN3CCCCCC3)cnc2cc1NC(=O)c1ccc(-c2ccc(Cl)cc2)cc1` [Example 238, N-[3-(1-azepanylmethyl)-6-methyl-7-quinolinyl]-4′-chloro[1,1′-biphenyl]-4-carboxamide] had a melting point of 204 °C. `COc1ccc(-c2ccc(C(=O)Nc3ccc4cc(CN5CCCCCC5)cnc4c3C)cc2)cc1` [Example 179, N-[3-(1-azepanylmethyl)-8-methyl-7-quinolinyl]-4′-methoxy[1,1′-biphenyl]-4-carboxamide] yielded a melting point of 165 to 167 °C. Under `CCN(CC)C(=O)CC1CCN(Cc2cnc3c(C)c(NC(=O)c4ccc(-c5ccc(F)cc5)cc4)ccc3c2)CC1` [Example 204, N-[3-({4-[2-(diethylamino)-2-oxoethyl]-1-piperidinyl}methyl)-8-methyl-7-quinolinyl]-4′-fluoro[1,1′-biphenyl]-4-carboxamide] stands 158 to 160 °C.

`Cc1ccc(-c2ccc(C(=O)Nc3ccc4cc(CN5CCCC5)cnc4c3C)c(F)c2)cc1` [Example 135, 3-fluoro-4′-methyl-N-[8-methyl-3-(1-pyrrolidinylmethyl)-7-quinolinyl][1,1′-biphenyl]-4-carboxamide] had a melting point of 180 to 182 °C.

With `COc1ccc(-c2ccc(C(=O)Nc3ccc4cc(CN5CCCC5)cnc4c3F)cc2)cc1` [Example 72, N-[8-fluoro-3-(1-pyrrolidinylmethyl)-7-quinolinyl]-4′-methoxy[1,1′-biphenyl]-4-carboxamide], the melting point lay within 217 to 220 °C. Under `NC(=O)C1CCN(Cc2cnc3cc(NC(=O)c4ccc(-c5ccc(F)cc5)cc4)ccc3c2)CC1` [Example 42, 1-[(7-{[(4′-fluoro[1,1′-biphenyl]-4-yl)carbonyl]amino}-3-quinolinyl)methyl]-4-piperidine carboxamide] stands 261 to 265 °C; under `CN1CCc2nc3cc(NC(=O)c4ccc(-c5ccc(Cl)cc5)cc4F)ccc3cc2C1` [Example 328, 4′-chloro-3-fluoro-N-(2-methyl-1,2,3,4-tetrahydrobenzo[b][1,6]naphthyridin-7-yl)[1,1′-biphenyl]-4-carboxamide], > 220 °C (dec.). Under `CCN(CC)C(=O)C1CCN(Cc2cnc3cc(NC(=O)c4ccc(-c5ccc(F)cc5)cc4)c(C)cc3c2)CC1` [Example 272, N,N-diethyl-1-[(7-{[(4′-fluoro-1,1′-biphenyl-4-yl)carbonyl]amino}-6-methyl-3-quinolinyl)methyl]piperidine-4-carboxamide] stands 203 °C; under `CCC(=O)Oc1ccc(C(=O)Nc2ccc3cc(CN4CCCC4)cnc3c2C)cc1` [Example 330, 4-({[8-methyl-3-(1-pyrrolidinylmethyl)-7-quinolinyl]amino}carbonyl)phenyl propionate], 146 to 147 °C; under `Cc1cc2cc(CN3CCC(CC(=O)N4CCCCC4)CC3)cnc2cc1NC(=O)c1ccc(-c2ccc(F)cc2)cc1` [Example 265, 4′-fluoro-N-[6-methyl-3-({4-[2-oxo-2-(1-piperidinyl)ethyl]-1-piperidinyl}methyl)-7-quinolinyl][1,1′-biphenyl]-4-carboxamide], 216 °C. With `CNC(=O)CCC1CCN(Cc2cnc3cc(NC(=O)c4ccc(-c5ccc(F)cc5)cc4)c(C)cc3c2)CC1` [Example 254, 4′-fluoro-N-[6-methyl-3-({4-[3-(methylamino)-3-oxopropyl]-1-piperidinyl}methyl)-7-quinolinyl][1,1′-biphenyl]-4-carboxamide], the melting point lay in the range of 207 to 211 °C. `Cc1cc2cc(CN3CCC(CCC(=O)N4CCCCC4)CC3)cnc2cc1NC(=O)c1ccc(-c2ccc(F)cc2)cc1` [Example 258, 4′-fluoro-N-[6-methyl-3-({4-[3-oxo-3-(1-piperidinyl)propyl]-1-piperidinyl}methyl)-7-quinolinyl][1,1′-biphenyl]-4-carboxamide] registered a melting point of 189 to 191 °C.

`CCNC(=O)CC1CCN(Cc2cnc3cc(NC(=O)c4ccc(-c5ccc(F)cc5)cc4)c(C)cc3c2)CC1` [Example 267, N-[3-({4-[2-(ethylamino)-2-oxoethyl]-1-piperidinyl}methyl)-6-methyl-7-quinolinyl]-4′-fluoro[1,1′-biphenyl]-4-carboxamide] displayed a melting point of 251 °C.

Regarding `Cc1ccc(-c2ccc(C(=O)Nc3ccc4cc(CN5CCCCCC5)cnc4c3)cc2)cc1` [Example 28, N-[3-(1-azepanylmethyl)-7-quinolinyl]-4′-methyl[1,1′-biphenyl]-4-carboxamide], the melting point was determined as 209 °C.

As usually defined, the melting point is the temperature, or range, at which the solid turns liquid.
